Results as given in PubChem BioAssay (NCI).
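Results reflect a 48-hour exposure of cells in 96-well plates to compound at five concentrations. GI50: concentration for 50% inhibition of growth. The concentration for full growth arrest is given as TGI.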

Key:
Test in all cases: inhibition of tumour cell growth, NCI panel, 48 h
[1] = test system: 786-0 renal
[2] = test system: A549 NSCLC
[3] = test system: ACHN renal
[4] = test system: BT-549 breast
[5] = test system: CAKI-1 renal
[6] = test system: CCRF-CEM leukemia
[7] = test system: COLO 205 colon
[8] = test system: DU-145 prostate
[9] = test system: HCC-2998 colon
[10] = test system: HCT-116 colon
[11] = test system: HCT-15 colon
[12] = test system: HL-60(TB) leukemia
[13] = test system: HOP-62 NSCLC
[14] = test system: HOP-92 NSCLC
[15] = test system: HS 578T breast
[16] = test system: HT29 colon
[17] = test system: IGROV1 ovarian
[18] = test system: K-562 leukemia
[19] = test system: KM12 colon
[20] = test system: LOX IMVI melanoma
[21] = test system: M14 melanoma
[22] = test system: MCF7 breast
[23] = test system: MDA-MB-231 breast
[24] = test system: MDA-MB-435
[25] = test system: MOLT-4 leukemia
[26] = test system: NCI-H226 lung
[27] = test system: NCI-H23 lung
[28] = test system: NCI-H460 lung
[29] = test system: NCI-H522 lung
[30] = test system: NCI/ADR-RES ovarian
[31] = test system: OVCAR-3 ovarian
[32] = test system: OVCAR-4 ovarian
[33] = test system: OVCAR-5 ovarian
[34] = test system: OVCAR-8 ovarian
[35] = test system: PC-3 prostate
[36] = test system: RPMI-8226 leukemia
[37] = test system: RXF 393 renal
[38] = test system: SF-268 CNS
[39] = test system: SF-295 CNS
[40] = test system: SF-539 CNS
[41] = test system: SK-MEL-2 melanoma
[42] = test system: SK-MEL-28 melanoma
[43] = test system: SK-MEL-5 melanoma
[44] = test system: SK-OV-3 ovarian
[45] = test system: SN12C renal
[46] = test system: SNB-19 CNS
[47] = test system: SNB-75 CNS
[48] = test system: SR leukemia
[49] = test system: SW-620 colon
[50] = test system: T-47D breast
[51] = test system: TK-10 renal
[52] = test system: U251 CNS
[53] = test system: UACC-257 melanoma
[54] = test system: UACC-62 melanoma
[55] = test system: UO-31 renal
[56] = test system: A498 renal
[57] = test system: EKVX NSCLC
[58] = test system: MALME-3M melanoma

O=C(CC(O)c1ccncc1)c1ccccc1 (stereo not given)
GI50 [1]: 30 µM
TGI [1]: > 100 µM
GI50 [2]: 29 µM
TGI [2]: > 100 µM
GI50 [3]: 25.9 µM
TGI [3]: > 100 µM
GI50 [4]: 22.4 µM
TGI [4]: 88.4 µM
GI50 [5]: 23.1 µM
TGI [5]: > 100 µM
GI50 [6]: 30.7 µM
TGI [6]: > 100 µM
GI50 [7]: 16.5 µM
TGI [7]: 31.2 µM
GI50 [8]: 45.5 µM
TGI [8]: > 100 µM
GI50 [9]: 35 µM
TGI [9]: > 100 µM
GI50 [10]: 19.3 µM
TGI [10]: 54.6 µM
GI50 [11]: 28.2 µM
TGI [11]: > 100 µM
GI50 [12]: 17.6 µM
TGI [12]: 59.6 µM
GI50 [13]: 31.7 µM
TGI [13]: > 100 µM
GI50 [14]: 16.1 µM
TGI [14]: 69.6 µM
GI50 [15]: 36.4 µM
TGI [15]: > 100 µM
GI50 [16]: 28.6 µM
TGI [16]: 85.3 µM
GI50 [17]: 35.9 µM
TGI [17]: > 100 µM
GI50 [18]: 23.9 µM
TGI [18]: > 100 µM
GI50 [19]: 33.7 µM
TGI [19]: > 100 µM
GI50 [20]: 20.9 µM
TGI [20]: 49.5 µM
GI50 [21]: 28.6 µM
TGI [21]: > 100 µM
GI50 [22]: 24.7 µM
TGI [22]: > 100 µM
GI50 [23]: 16.7 µM
TGI [23]: 54.6 µM
GI50 [24]: 20.8 µM
TGI [24]: 56.5 µM
GI50 [25]: 22.2 µM
TGI [25]: 79.4 µM
GI50 [26]: 33.9 µM
TGI [26]: > 100 µM
GI50 [27]: 42.8 µM
TGI [27]: > 100 µM
GI50 [28]: 27.1 µM
TGI [28]: 89.2 µM
GI50 [29]: 29.4 µM
TGI [29]: 99.3 µM
GI50 [30]: 29.8 µM
TGI [30]: > 100 µM
GI50 [31]: 30.5 µM
TGI [31]: > 100 µM
GI50 [32]: 20.5 µM
TGI [32]: > 100 µM
GI50 [33]: 37.6 µM
TGI [33]: > 100 µM
GI50 [34]: 33.8 µM
TGI [34]: > 100 µM
GI50 [35]: 23.3 µM
TGI [35]: > 100 µM
GI50 [36]: 17.9 µM
TGI [36]: 62.6 µM
GI50 [37]: 21.3 µM
TGI [37]: > 100 µM
GI50 [38]: 37.1 µM
TGI [38]: > 100 µM
GI50 [39]: 27.7 µM
TGI [39]: > 100 µM
GI50 [40]: 19.5 µM
TGI [40]: 48.3 µM
GI50 [41]: 21.2 µM
TGI [41]: 55.3 µM
GI50 [42]: 21.9 µM
TGI [42]: 70.4 µM
GI50 [43]: 16.1 µM
TGI [43]: 30.8 µM
GI50 [44]: 25.4 µM
TGI [44]: 93.3 µM
GI50 [45]: 29.8 µM
TGI [45]: > 100 µM
GI50 [46]: 34.1 µM
TGI [46]: > 100 µM
GI50 [47]: 17.8 µM
TGI [47]: > 100 µM
GI50 [48]: 18.9 µM
TGI [48]: 47.6 µM
GI50 [49]: 32.2 µM
TGI [49]: > 100 µM
GI50 [50]: 25.7 µM
TGI [50]: > 100 µM
GI50 [51]: 41.8 µM
TGI [51]: > 100 µM
GI50 [52]: 28.6 µM
TGI [52]: > 100 µM
GI50 [53]: 23.8 µM
TGI [53]: 80.4 µM
GI50 [54]: 32 µM
TGI [54]: > 100 µM
GI50 [55]: 22.1 µM
TGI [55]: > 100 µM

COc1cc2c(cc1OCCCCCn1c(-c3ccco3)nc3ccccc31)N=C[C@@H]1CCCN1C2=O
GI50 [1]: < 0.01 µM
TGI [1]: 1.3 µM
GI50 [56]: < 0.01 µM
TGI [56]: < 0.0156 µM
GI50 [2]: < 0.01 µM
TGI [2]: > 100 µM
GI50 [4]: < 0.01 µM
TGI [4]: < 0.0209 µM
GI50 [5]: < 0.01 µM
TGI [5]: 0.0318 µM
GI50 [6]: < 0.01 µM
TGI [6]: 0.09 µM
GI50 [7]: < 0.01 µM
TGI [7]: < 0.01 µM
GI50 [8]: < 0.0152 µM
GI50 [57]: < 0.0115 µM
TGI [57]: 1.59 µM
GI50 [9]: < 0.01 µM
TGI [9]: 0.0193 µM
GI50 [10]: < 0.01 µM
TGI [10]: 16.1 µM
GI50 [11]: 0.0452 µM
TGI [11]: 26.4 µM
GI50 [12]: 0.023 µM
TGI [12]: 0.114 µM
GI50 [13]: < 0.01 µM
TGI [13]: 1.1 µM
GI50 [14]: < 0.0122 µM
GI50 [15]: < 0.01 µM
TGI [15]: < 0.0349 µM
GI50 [16]: < 0.01 µM
TGI [16]: > 100 µM
GI50 [17]: < 0.01 µM
TGI [17]: 13.2 µM
GI50 [18]: < 0.01 µM
TGI [18]: > 100 µM
GI50 [19]: < 0.01 µM
GI50 [21]: < 0.01 µM
TGI [21]: 0.0236 µM
GI50 [58]: < 0.01 µM
TGI [58]: < 0.01 µM
GI50 [22]: < 0.01 µM
TGI [22]: 19 µM
GI50 [23]: < 0.0141 µM
TGI [23]: 0.224 µM
GI50 [24]: < 0.01 µM
TGI [24]: < 0.01 µM
GI50 [25]: < 0.01 µM
GI50 [26]: < 0.01 µM
TGI [26]: < 0.0136 µM
GI50 [27]: < 0.01 µM
TGI [27]: < 0.01 µM
GI50 [28]: < 0.01 µM
TGI [28]: 14.3 µM
GI50 [29]: < 0.01 µM
GI50 [30]: 0.295 µM
GI50 [31]: < 0.01 µM
TGI [31]: < 0.01 µM
GI50 [32]: < 0.014 µM
TGI [32]: > 41.4 µM
GI50 [34]: < 0.01 µM
TGI [34]: > 36.8 µM
GI50 [35]: < 0.01 µM
TGI [35]: > 100 µM
GI50 [36]: < 0.01 µM
TGI [36]: < 0.0309 µM
GI50 [38]: < 0.01 µM
GI50 [39]: < 0.01 µM
TGI [39]: 0.0227 µM
GI50 [40]: < 0.01 µM
TGI [40]: < 0.0472 µM
GI50 [41]: < 0.0147 µM
TGI [41]: 0.07 µM
GI50 [42]: < 0.01 µM
TGI [42]: < 0.0149 µM
GI50 [43]: < 0.01 µM
TGI [43]: < 0.01 µM
GI50 [44]: < 0.01 µM
GI50 [45]: < 0.01 µM
TGI [45]: 11.3 µM
GI50 [47]: < 0.01 µM
TGI [47]: 0.0334 µM
GI50 [48]: < 0.01 µM
TGI [48]: < 0.01 µM
GI50 [49]: < 0.01 µM
TGI [49]: 10.1 µM
GI50 [50]: < 0.01 µM
GI50 [51]: 0.0267 µM
TGI [51]: 35.6 µM
GI50 [52]: < 0.01 µM
TGI [52]: 11.2 µM
GI50 [53]: < 0.01 µM
TGI [53]: < 0.01 µM
GI50 [54]: < 0.01 µM
TGI [54]: < 0.0106 µM
